# Data reported in patent US20240207427A1, “SELECTIVE DRUG RELEASE FROM INTERNALIZED CONJUGATES OF BIOLOGICALLY ACTIVE COMPOUNDS” (priority 2021, published 2024).
# Like-named read-outs stand apart in the source and are kept apart here.
# Assays:
# Format in all cases: cell-based
# [1] = tested on: Hodgkin's lymphoma cells (L540cy); test: In vitro potency (CellTiter-Glo, 96 h), L540cy
# Procedure, shortened: (§1)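 IC50 (ng/mL or nmol/L) derived from CellTiter-Glo luminescence after 96 h exposure at 37 °C to serial dilutions of ADC or CPT free drug. Log-phase cells had been plated 24 h beforehand in RPMI 1640 containing 20% FBS.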
# [2] = tested on: U266 cells; test: In vitro potency (CellTiter-Glo, 96 h), U266; conditions: Homo sapiens, U-266; camptothecin drugs, Table 13; CellTiter-Glo after 96 h exposure
# Protocol: (§2) In vitro potency was assessed on multiple cancer cell lines. All cell lines were authenticated by STR profiling at IDEXX Bioresearch and cultured for no more than 2 months after resuscitation. Cells cultured in log-phase growth were seeded for 24 hours in 96-well plates containing […] RPMI 1640 supplemented with 20% FBS. Following addition of test articles, cells were incubated with test articles for 4 days at 37 0° C. After 96 hours, growth inhibition was assessed by CellTiterGlo® (Promega, Madison, WI) and luminescence was measured on a plate reader.
# (§3) Cell viability was determined by CellTiter-Glo staining after 96 h exposure to the compound. ND=Not Determined. The cancer cell lines tested are renal carcinoma cells (786-0), melanoma cells (A2058), pancreatic cancer cells (BxPC3), non-small-cell lung cancer cells (Calu1), anaplastic large cell lymphoma cells (DEL, DELBVR, Karpas299), Hodgkin's lymphoma cells (L540cy), (Ls 174T), breast cancer cells (MDA-MB-231), acute myeloid leukemia cells (MOLM-13), B-lymphocyte cancer cells (SU-DHL4), multiple myeloma cells (MM.1R), (U266), and melanoma cells (SK-MEL-5).
# as §2, with “FBS. Serial dilutions of antibody-drug conjugates in cell culture media were prepared at 4× working concentrations, and 50 μL of each dilution was added to the 96-well plates.” for “FBS.”, “37°” for “37 0°”
# (§4) In vitro potency was assessed on multiple cancer cell lines. […] After 96 hours, growth inhibition was assessed by CellTiterGlo® (Promega, Madison, WI) and luminescence was measured on a plate reader.
# [3] = tested on: B-lymphocyte cancer cells (SU-DHL4); test: In vitro potency (CellTiter-Glo, 96 h), SU-DHL-4; conditions: Homo sapiens, SU-DHL-4, 96 h
# Procedure, shortened: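 Four-day continuous exposure at 37 °C to serially diluted ADC or free camptothecin payload, in RPMI 1640 with 20% FBS after 24 h pre-plating. Luminescent signal gave IC50 (ng/mL; nmol/L).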
# [4] = tested on: acute myeloid leukemia cells (MOLM-13); test: In vitro potency (CellTiter-Glo, 96 h), MOLM-13; conditions: Homo sapiens, MOLM-13, 96 h
# Procedure, shortened: (§5)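 Antibody-drug conjugates, prepared as dilution series in culture medium, were added to cells seeded a day earlier in RPMI 1640 supplemented with 20% FBS. After four days at 37 °C, luminescence measured growth inhibition.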
# [5] = tested on: melanoma cells (SK-MEL-5); test: In vitro potency (CellTiter-Glo, 96 h), SK-MEL-5; conditions: Homo sapiens, camptothecin drugs, Table 13, CellTiter-Glo after 96 h exposure
# Protocol: as §2, §3
# as §2, with “FBS. Serial dilutions of antibody-drug conjugates in cell culture media were prepared at 4× working concentrations, and 50 μL of each dilution was added to the 96-well plates.” for “FBS.”, “37°” for “37 0°”
# as §4
# [6] = tested on: pancreatic cancer cells (BxPC3); test: In vitro potency (CellTiter-Glo, 96 h), BxPC3; conditions: Homo sapiens, BXPC-3, 96 h
# Procedure, shortened: as §5
# [7] = tested on: multiple myeloma cells (MM.1R); test: In vitro potency (CellTiter-Glo, 96 h), MM.1R; conditions: camptothecin drugs, Table 13, CellTiter-Glo after 96 h exposure
# Protocol: as §2, §3
# as §2, with “FBS. Serial dilutions of antibody-drug conjugates in cell culture media were prepared at 4× working concentrations, and 50 μL of each dilution was added to the 96-well plates.” for “FBS.”, “37°” for “37 0°”
# as §4
# [8] = tested on: renal carcinoma cells (786-O); test: In vitro potency (CellTiter-Glo, 96 h), 786-O; conditions: Homo sapiens, 786-0, 96 h
# Procedure, shortened: as §1
# [9] = tested on: anaplastic large cell lymphoma cells (DEL); test: In vitro potency (CellTiter-Glo, 96 h), DEL
# Procedure, shortened: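 Authenticated lines (STR), used within 2 months of resuscitation, were seeded 24 h before treatment. Exposure to ADC dilutions lasted 96 h at 37 °C in RPMI 1640 with 20% FBS; viability was quantified luminescently.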
# [10] = tested on: Ls174T cells; test: In vitro potency (CellTiter-Glo, 96 h), Ls174T; conditions: Homo sapiens, LS174T, 96 h
# Procedure, shortened: (§6)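 Cells in log-phase growth are plated in RPMI 1640/20% FBS for 24 h. Serially diluted conjugates are then added, and plates are kept at 37 °C for 4 days before ATP-based luminescence gives growth inhibition.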
# [11] = tested on: anaplastic large cell lymphoma cells (DELBVR); test: In vitro potency (CellTiter-Glo, 96 h), DELBVR
# Procedure, shortened: as §1
# [12] = tested on: anaplastic large cell lymphoma cells (Karpas299); test: In vitro potency (CellTiter-Glo, 96 h), Karpas299; conditions: Homo sapiens, KARPAS-299, 96 h
# Procedure, shortened: as §1
# [13] = tested on: melanoma cells (A2058); test: In vitro potency (CellTiter-Glo, 96 h), A2058; conditions: Homo sapiens, A2058, 96 h, read-out: A2058 IC50
# Procedure, shortened: as §6
# [14] = tested on: non-small-cell lung cancer cells (Calu1); test: In vitro potency (CellTiter-Glo, 96 h), Calu1; conditions: Homo sapiens, Calu-1, 96 h, read-out: Calu1 IC50
# Procedure, shortened: as §6
# [15] = tested on: breast cancer cells (MDA-MB-231); test: In vitro potency (CellTiter-Glo, 96 h), MDA-MB-231; conditions: Homo sapiens, MDA-MB-231, 96 h
# Procedure, shortened: as §1
# [16] = read-out: IC50 L540cy, camptothecin drugs, Table 13, CellTiter-Glo after 96 h exposure
# [17] = read-out: IC50 SU-DHL-4, camptothecin drugs, Table 13, CellTiter-Glo after 96 h exposure
# [18] = read-out: IC50 MOLM-13, camptothecin drugs, Table 13, CellTiter-Glo after 96 h exposure
# [19] = read-out: IC50 BxPC3, camptothecin drugs, Table 13, CellTiter-Glo after 96 h exposure
# [20] = read-out: IC50 786-O, camptothecin drugs, Table 13, CellTiter-Glo after 96 h exposure
# [21] = camptothecin free drug, read-out: L540cy IC50
# [22] = camptothecin free drug, read-out: DEL IC50
# [23] = camptothecin free drug, 96 h, read-out: SU-DHL-4 IC50
# [24] = camptothecin free drug, 96 h, read-out: MOLM-13 IC50
# [25] = camptothecin free drug, 96 h, read-out: BxPC3 IC50
# [26] = camptothecin free drug, read-out: Ls174T IC50
# [27] = camptothecin free drug, read-out: DELBVR IC50
# [28] = camptothecin free drug, 96 h, read-out: Karpas299 IC50
# [29] = camptothecin free drug, 96 h, read-out: MDAMB231 IC50
# [30] = camptothecin free drug, 96 h, read-out: 786-O IC50
compound,measurement,setting,value
CC[C@@]1(O)C(=O)OCc2c1cc1n(c2=O)Cc2c-1nc1cc3c(cc1c2CNc1ccc(N)cc1)OCO3 [Compound 7ab],IC50,[1]; [16],0.4 nM
same,IC50,[2],2 nM
same,IC50,[3]; [17],0.4 nM
same,IC50,[4]; [18],0.3 nM
same,IC50,[5],1 nM
same,IC50,[6]; [19],1 nM
same,IC50,[7],0.4 nM
same,IC50,[8]; [20],1 nM
CC[C@@]1(O)C(=O)OCc2c1cc1n(c2=O)Cc2c-1nc1cc3c(cc1c2CNc1ccccc1N)OCO3 [Compound 7ac],IC50,[1]; [16],2 nM
same,IC50,[2],8 nM
same,IC50,[3]; [17],1 nM
same,IC50,[4]; [18],1 nM
same,IC50,[5],4 nM
same,IC50,[6]; [19],5 nM
same,IC50,[7],2 nM
same,IC50,[8]; [20],2 nM
CC[C@@]1(O)C(=O)OCc2c1cc1n(c2=O)Cc2c-1nc1cc3c(cc1c2CNc1cccc(N)c1)OCO3 [Compound 7ad],IC50,[1]; [16],2 nM
same,IC50,[2],8 nM
same,IC50,[3]; [17],2 nM
same,IC50,[4]; [18],1 nM
same,IC50,[5],7 nM
same,IC50,[6]; [19],6 nM
same,IC50,[7],2 nM
same,IC50,[8]; [20],5 nM
CC[C@@]1(O)C(=O)OCc2c1cc1n(c2=O)Cc2c-1nc1cc3c(cc1c2CNC1CCN(C(=O)OC(C)(C)C)CC1)OCO3 [Compound 7q],IC50,[1]; [21],15 nM
same,IC50,[9]; [22],6 nM
same,IC50,[3]; [23],17 nM
same,IC50,[4]; [24],33 nM
same,IC50,[6]; [25],28 nM
same,IC50,[10]; [26],24 nM
same,IC50,[11]; [27],13 nM
same,IC50,[12]; [28],26 nM
same,IC50,"[13]; camptothecin free drug, 96 h",7 nM
same,IC50,"[14]; camptothecin free drug, 96 h",1000 nM
same,IC50,[15]; [29],131 nM
same,IC50,[8]; [30],26 nM
CC[C@@]1(O)C(=O)OCc2c1cc1n(c2=O)Cc2c-1nc1cc3c(cc1c2CNCC(O)CO)OCO3 (stereo partly drawn) [Compound 7x],IC50,"[1]; read-out: L540cy IC50, camptothecin free drug, 96 h",32 nM
same,IC50,"[9]; read-out: DEL IC50, camptothecin free drug, 96 h",16 nM
same,IC50,"[3]; read-out: SU-DHL-4 IC50, camptothecin free drug, 96 h",41 nM
same,IC50,"[4]; read-out: MOLM-13 IC50, camptothecin free drug, 96 h",574 nM
same,IC50,"[6]; read-out: BxPC3 IC50, camptothecin free drug, 96 h",79 nM
same,IC50,"[10]; read-out: Ls174T IC50, camptothecin free drug, 96 h",> 1000 nM
same,IC50,"[11]; read-out: DELBVR IC50, camptothecin free drug, 96 h",20 nM
same,IC50,"[12]; read-out: Karpas299 IC50, camptothecin free drug, 96 h",54 nM
same,IC50,[13],18 nM
same,IC50,[14],> 1000 nM
same,IC50,"[15]; read-out: MDAMB231 IC50, camptothecin free drug, 96 h",523 nM
same,IC50,"[8]; read-out: 786-O IC50, camptothecin free drug, 96 h",88 nM
CC[C@@]1(O)C(=O)OCc2c1cc1n(c2=O)Cc2c-1nc1cc3c(cc1c2CN1CCC(NC(=O)OC(C)(C)C)CC1)OCO3 [Compound 7y],IC50,[1]; [21],15 nM
same,IC50,[9]; [22],8 nM
same,IC50,[3]; [23],23 nM
same,IC50,[4]; [24],68 nM
same,IC50,[6]; [25],28 nM
same,IC50,[10]; [26],17 nM
same,IC50,[11]; [27],14 nM
same,IC50,[12]; [28],36 nM
same,IC50,"[13]; camptothecin free drug, 96 h",7 nM
same,IC50,"[14]; camptothecin free drug, 96 h",896 nM
same,IC50,[15]; [29],140 nM
same,IC50,[8]; [30],31 nM
"CCc1c(C)c(F)cc2nc3c(c(CN)c12)Cn1c-3cc2c(c1=O)COC(=O)[C@]2(O)CC [Compound 10, (S)-11-(aminomethyl)-4,10-diethyl-8-fluoro-4-hydroxy-9-methyl-1,12-dihydro-14H-pyrano[3′,4′:6,7]indolizino[1,2-b]quinoline-3,14(4H)-dione]",IC50,"[1]; read-out: L540cy IC50, Table 28, CPT free drugs, Hodgkin's lymphoma cells L540cy, CellTiter-Glo",51 nM
same,IC50,"[9]; read-out: DEL IC50, Table 28, CPT free drugs, anaplastic large cell lymphoma cells DEL, CellTiter-Glo",7 nM
same,IC50,"[3]; read-out: SU-DHL-4 IC50, Table 28, CPT free drugs, B-lymphocyte cancer cells SU-DHL4, 96 h, CellTiter-Glo",15 nM
same,IC50,"[4]; read-out: MOLM-13 IC50, Table 28, CPT free drugs, acute myeloid leukemia cells MOLM-13, 96 h, CellTiter-Glo",149 nM
same,IC50,"[6]; read-out: BxPC3 IC50, Table 28, CPT free drugs, pancreatic cancer cells BxPC3, 96 h, CellTiter-Glo",64 nM
same,IC50,"[10]; read-out: Ls174T IC50, Table 28, CPT free drugs, Ls174T cells, CellTiter-Glo",33 nM
same,IC50,"[11]; read-out: DELBVR IC50, Table 28, CPT free drugs, anaplastic large cell lymphoma cells DELBVR, CellTiter-Glo",15 nM
same,IC50,"[12]; read-out: Karpas299 IC50, Table 28, CPT free drugs, anaplastic large cell lymphoma cells Karpas299, 96 h, CellTiter-Glo",57 nM
same,IC50,[13],33 nM
same,IC50,[14],95 nM
same,IC50,"[15]; read-out: MDAMB231 IC50, Table 28, CPT free drugs, breast cancer cells MDA-MB-231, 96 h, CellTiter-Glo",59 nM
same,IC50,"[8]; read-out: 786-O IC50, Table 28, CPT free drugs, renal carcinoma cells 786-O, 96 h, CellTiter-Glo",54 nM
